Key:
[1] = Effect of defaunation compounds on feed intake of sheep; type: in vivo; settings: after dosing vs pre-dosing intake
Protocol: Sheep were allowed a minimum of three weeks to adapt to their ration of 900 g of oaten chaff and 100 g of Lucerne chaff. The pre-dosing level of intake for each animal was established from the mean of five days intake immediately prior to dosing. Any effects of administering the compound on feed intake was then determined by measuring the level of feed intake after dosing.
The criteria of classifying the effect on food intake are shown below.
Poor--greater than 50% reduction in feed intake during the first week after dosing.
Fair--greater than 50% reduction in feed intake on the day following dosing but less then 50% reduction one week after dosing.
OK--transient drop in feed intake which is less than 50% on the day after dosing.
Good--No reduction in feed intake following dosing.

rumen ciliate protozoa [2] = experiment: Protozoal reduction in sheep; type: in vivo; parameters: concentration or dose not given beside the values; settings: one week after dosing, relative to predosing numbers
Protocol: Defaunation compositions were prepared according to the method of Example 1.
Prior to dosing of the compound, a sample of rumen liquor (200 ml) was withdrawn to establish basal numbers of protozoa.
The sample was collected using a stomach tube, inserted into the rumen via a rumen cannula (fistulated animals) or per esophagus (intact animals). After straining the sample was well mixed using a magnetic stirrer and a 0.5 ml sample was withdrawn and added to 49.5 ml of a crystal violet stain. Protozoa were counted using a microscope and a Hawksley counting chamber.
One week after administering the compound, another rumen liquor sample was collected (as described above) and examined for the presence of protozoa. Where rumen ciliate protozoa were undetectable, a reduction or inhibition value of 100% was recorded. In general, most compounds expressed a strong inhibitory effect on protozoal populations.

rumen bacteria [3] = experiment: In vitro bacterial gas inhibition; type: cell-based; settings: at the concentration known to kill protozoa
Protocol: Compounds of Table 1 were also tested for toxicity bacteria. This involved removing protozoa from rumen liquor by centrifugation at 2,000 g for 5 minutes and collecting the bacterial rich supernatant. Nitrogen and energy substrate was added to the bacterial preparation which was then dispensed in triplicate 10 ml volumes over the same range of compound concentrations (50, 150, 250 and 500 ppm.) referred to in Example 2. Control tubes were placed after every second compound to enable the inhibition of gas resulting from the compound to be assessed. […] It can be seen that these compounds are selective in their mode of action, in that they are more toxic to protozoa than bacteria.

rumen ciliate protozoa [4] = experiment: In vitro activity of defaunation compounds against rumen ciliate protozoa; type: cell-based; settings: 39° C., anaerobic, 3 hours, tested at 50, 150, 250 and 500 ppm
Protocol: Compounds of Table 1 were tested for their toxicity against rumen ciliate protozoa by firstly isolating protozoa from rumen liquor collected from faunated animals. The rumen liquor was then centrifuged at 500 g for five minutes and the supernatant discarded. The protozoal-rich sediment was then reconstituted in McDougal's artificial saliva. Residual bacteria were suppressed by using a combination of two antibiotics at low concentration. Nitrogen and energy substrate was optimized for the protozoal preparation. At all times the protozoal preparation was maintained at 39° C. and kept anaerobic.
Sixty milligrams of each the compounds of Table 1 were dissolved in 1.2 ml of dimethyl sulphoxide and dispersed in triplicate to achieve a final concentration of 50, 150, 250 and 500 ppm. Ten milliliters of protozoal preparation was then added to each tube. After every second compound, control tubes were included which contained everything except for compound. The tubes, to which a 5 ml glass syringe was attached, were then incubated for 3 hours in a water bath at 39° C. The production of gas causes the syringe plunger to be displaced.
At the end of the incubation period, the volume of gas produced was recorded and the viability of the protozoa assessed visually using a microscope. The toxicity of the compounds to protozoa was assessed from both the reduction in gas produced relative to the control and by direct observation of the protozoa for movement of cilia.

mice = experiment: Mouse safety assessment; type: in vivo; settings: oral gavage, 830, 415 and 217 mg/kg, observed for 2 days
Protocol: Compounds of Table 1 chosen for testing in sheep were first tested in mice for signs of toxicity. Because sheep are approximately 5 times more sensitive than mice to compounds dosed orally, the dose rates applied to mice were 5 times greater than the target dose rate of 500 ppm. in rumen liquor (83 mg/kg live weight) used for sheep. Each compound was screened at three different dose levels, high (830 mg/kg), medium (415 mg/kg) and low (217 mg/kg).
252 mg of compound was used for dilution into a high medium and low dose rate. 252 mg of compound was mixed with 3 ml of G1284 solution (4% w/v ethoxylated castor oil and 0.05% w/v simethicone), to form the high dose composition. The medium dose composition was formed by diluting 1.5 ml of the high dose with 1.5 ml of G1284 solution. The low dose composition was formed by diluting 1.5 ml of the medium dose with 1.5 ml of G1284 solution. Before the high dose could be diluted it was first manually ball milled in an effort to produce a fine suspension of the compound.
All mice were weighed before dosing to calculate the appropriate dose rate. The calculation for dose rate was: [formula]
Each mouse was dosed using the Gavage method. With this method the mouse is dosed orally by way of an angled hypodermic needle (18 g) with a smooth spherical end. It is gently placed down the esophagus. All care must be taken not to force the needle and injure the esophagus or dose into the lungs.
Observations were made at 10, 30, 60 and 120 minutes after dosing, then every 1 or 2 hours for the first 6 hours.
Mice were usually observed for 2 days.
Typically, few compounds fell within the poor classification. The majority of compounds tested were either in the fair or good classification.

rumen bacteria [5] = experiment: Bacterial viability in sheep after administering defaunation compounds; type: in vivo; settings: gas production one week after dosing vs pre-dosing
Protocol: In order to establish what effect the compounds had on the viability of rumen bacteria, a sample of rumen liquor was collected prior to dosing of the compound. The sample was withdrawn under vacuum using a pre-warmed tube inserted into the rumen through a rumen cannula. The sample was collected in a pre-warmed (39° C.) flask, gassed with carbon dioxide and covered. Two-pre-warmed 30 ml centrifuge tubes were then filled with well mixed rumen liquor and centrifuged at 2000 rpm for 5 minutes. Half the volume of each tube was then poured into another pre-warmed tube without disturbing the sediment. Three lots of 10 ml of this rumen liquor were then pipetted into 15 ml tubes which contained 10 μL of urea solution (40% w/v and 300 μL of glucose solution (50% w/v). The urea and glucose acted as substrate for the bacteria. The tubes were then gassed with carbon dioxide, stoppered and placed in a water bath at 39° C. After 10 minutes a 5 ml glass syringe was secured into the stoppers (through which a hypodermic needle had been inserted) and the gas collected for five hours and recorded.
This bacterial viability measure was then repeated one week after dosing with each of the compounds referred to in Table 1. Defaunation compositions were prepared according to the method of Example 1. The amount of gas produced was then compared with the pre-dosing level. The criterion for classifying post-dosing bacterial viability is shown below:
Poor--reduction in post-dosing gas production relative to pre-dosing levels.
OK--post-dosing gas production the same as pre-dosing levels.
Good--increase in post-dosing gas production relative to pre-dosing levels.

protozoa [6] = experiment: Sheep test: protozoal numbers; type: in vivo
Protocol: (§1) In this trial the effect of defaunation by compounds 27, 30 and 37 (see Table 1) after 1 and 3 weeks were examined using penned sheep.
(§2) The compounds were each administered to two sheep as a single dose at 167 mg/kg body weight. Compositions containing each compound were prepared according to the method of Example 1. Sheep were penned and fed 1000 g/day of a chaffed oaten hay and Lucerne mixture (90/10). Protozoal and bacterial viabilities were monitored along with the feed intake of the sheep according to the methods taught in Examples 2, 3 and 7.

[7] = Wool growth in defaunated sheep; type: in vivo; settings: sheep, 167 mg/kg
Protocol: (§3) Seven sheep each were defaunated using a dose rate of 167 mg/kg. Compounds were administered by first mixing with 20 ml of ethanol and then with 200 ml of centrifuged rumen liquor. This solution was then administered via a flexible stomach tube directly into the rumen. The sheep were fed with a ration of 90% oaten chaff and 10% Lucerne chaff at a rate of 1000 g per day. The sheep were maintained in a defaunated state by their isolation from faunated sheep to prevent the possibility of refaunation. The sheep were allowed to adjust for 3 weeks after administering the compound before any wool growth measurements were taken.
(§4) At the start of the wool growth measurement period, a 10 cm square area of wool was removed from both sides of the sheep. After four weeks the same area was reclipped and the wool retained for scouring at the end of the trial.
(§5) The sheep then had protozoa introduced back into their rumen and were allowed to adjust for three weeks. Similarly, during the second four week period, the wool was clipped from the same patch area. The wool harvested during the two four week trial periods was then scoured of wool wax and extraneous material and weighed.

protozoa [8] = experiment: Wool growth trial: protozoal number; type: in vivo; settings: sheep, defaunated period, 167 mg/kg
Protocol: as §3, §4, §5

rumen bacteria [9] = experiment: Sheep test: bacterial gas production; type: in vivo
Protocol: as §1, §2

Sheep test: feed intake = type: in vivo
Protocol: as §1, §2

N#Cc1cccc(Nc2nc(Cl)nc(Cl)n2)c1 [Compound 19]
Feed Intake [1]: Good
Protozoal Reduction (rumen ciliate protozoa [2]): 100%
Bact. Gas Inhibition at the conc. required to kill protozoa (rumen bacteria [3]): 50
Conc Required to Kill all Protozoa (rumen ciliate protozoa [4]): 250 ppm
Mouse Safety Assessment (mice): Fair (>2 mice sick)
Bacterial Viability (rumen bacteria [5]): Poor

CC(C)(C)c1ccc(Nc2nc(Cl)nc(Cl)n2)cc1 [Compound 20]
Feed Intake [1]: Good
Protozoal Reduction (rumen ciliate protozoa [2]): 100%
Bact. Gas Inhibition at the conc. required to kill protozoa (rumen bacteria [3]): 55
Conc Required to Kill all Protozoa (rumen ciliate protozoa [4]): 150 ppm
Mouse Safety Assessment (mice): Fair (>2 mice sick)
Bacterial Viability (rumen bacteria [5]): Okay

CC(C)c1ccc(Nc2nc(Cl)nc(Cl)n2)cc1 [Compound 21]
Feed Intake [1]: Good
Protozoal Reduction (rumen ciliate protozoa [2]): 100%
Bact. Gas Inhibition at the conc. required to kill protozoa (rumen bacteria [3]): 55
Conc Required to Kill all Protozoa (rumen ciliate protozoa [4]): 150 ppm
Mouse Safety Assessment (mice): Fair (>2 mice sick)
Bacterial Viability (rumen bacteria [5]): Good

Clc1nc(Cl)nc(Nc2cccc(I)c2)n1 [Compound 22]
Feed Intake [1]: Good
Protozoal Reduction (rumen ciliate protozoa [2]): 100%
Bact. Gas Inhibition at the conc. required to kill protozoa (rumen bacteria [3]): 75
Conc Required to Kill all Protozoa (rumen ciliate protozoa [4]): 150 ppm
Mouse Safety Assessment (mice): Fair (>2 mice sick)
Bacterial Viability (rumen bacteria [5]): Okay

COc1cccc(Nc2nc(Cl)nc(Cl)n2)c1 [Compound 23]
Feed Intake [1]: Good
Protozoal Reduction (rumen ciliate protozoa [2]): 79%
Bact. Gas Inhibition at the conc. required to kill protozoa (rumen bacteria [3]): 50
Conc Required to Kill all Protozoa (rumen ciliate protozoa [4]): 150 ppm
Mouse Safety Assessment (mice): Fair (>2 mice sick)
Bacterial Viability (rumen bacteria [5]): Good

Clc1nc(Cl)nc(Nc2cc(Cl)c(Cl)c(Cl)c2)n1 [Compound 24]
Feed Intake [1]: Good
Protozoal Reduction (rumen ciliate protozoa [2]): 100%
Bact. Gas Inhibition at the conc. required to kill protozoa (rumen bacteria [3]): 67
Conc Required to Kill all Protozoa (rumen ciliate protozoa [4]): 150 ppm
Mouse Safety Assessment (mice): Good
Bacterial Viability (rumen bacteria [5]): Okay

CN(c1ccc(Cl)c(Cl)c1)c1nc(Cl)nc(Cl)n1 [Compound 29]
Feed Intake [1]: Good
Protozoal Reduction (rumen ciliate protozoa [2]): 98%
Bact. Gas Inhibition at the conc. required to kill protozoa (rumen bacteria [3]): 41
Conc Required to Kill all Protozoa (rumen ciliate protozoa [4]): 150 ppm
Mouse Safety Assessment (mice): Fair (>2 mice sick)
Bacterial Viability (rumen bacteria [5]): Good

Cc1ccc(Nc2nc(Cl)nc(Cl)n2)c(C)c1 [Compound 30, 2,4 dichloro-6-(2,4-dimethylanilino)-s-triazine]
Feed Intake [1]: Okay (transient drop, less than 50% at day 2)
Protozoal Nos. (protozoa [6]; 1 week after 167 mg/kg): 0 per mL × 10^3
Protozoal Nos. (protozoa [6]; 3 weeks after 167 mg/kg): 0 per mL × 10^3
Protozoal Nos. (protozoa [6]; pre-dose (baseline)): 346 per mL × 10^3
Protozoal Reduction (rumen ciliate protozoa [2]): 100%
Bact. Gas Inhibition at the conc. required to kill protozoa (rumen bacteria [3]): 33
Response To Defaun ([7]; clean wool growth defaunated vs refaunated): 14.6
Clean Wool Growth ([7]; defaunated period, 4 weeks, per midside patch): 2.830 g
Conc Required to Kill all Protozoa (rumen ciliate protozoa [4]): 150 ppm
Prot. Number (protozoa [8]): 0 per mL × 10^3
Bacterial gas production (rumen bacteria [9]; 1 week after 167 mg/kg): 1.9 M1 per 5 hr
Bacterial gas production (rumen bacteria [9]; 3 weeks after 167 mg/kg): 4.6 M1 per 5 hr
Bacterial gas production (rumen bacteria [9]; pre-dose (baseline)): 4.4 M1 per 5 hr
Feed Intake (Sheep test: feed intake; 1 week after 167 mg/kg): 625 g/day
Feed Intake (Sheep test: feed intake; 3 weeks after 167 mg/kg): 740 g/day
Feed Intake (Sheep test: feed intake; pre-dose (baseline)): 887 g/day
Bacterial Viability (rumen bacteria [5]): Good
